Values quoted from earlier work in patent US11168056B2, “Process for the manufacturing of (6aR,10aR)-7-propyl-6,6a,7,8,9,10,10a,11-octahydro-[1,3]dioxolo[4′,5′:5,6]benzo[1,2-G]quinoline and (4aR,10aR)-1-propyl-1,2,3,4,4a,5,10,10a-octahydro-benzo[G]quinoline-6,7-diol” (H. Lundbeck A/S, priority 2019, dated 2021).
Where two headings read alike, the source gives them in different places. Each block holds one compound with its values, some of them ahead of it.

Tests used:
[1] = test system: animal models relevant for Parkinson's Disease; conditions: various animal models
[2] = rats
[3] = man, after oral dosing
PD patients = conditions: intravenous (IV)
[4] = rats; remark: listed apart in the source

Compound: CCCN1CCC[C@@H]2Cc3c(ccc(O)c3O)C[C@H]21 [compound (I), (4aR,10aR)-1-propyl-1,2,3,4,4a,5,10,10a-octahydro-benzo[g]quinoline-6,7-diol]
efficacy in animal models relevant for Parkinson's Disease [1]: effective | oral bioavailability [2]: low

hepatic first-pass metabolism [3]: extensive | oral bioavailability [3]: ~4%
Compound: CCCc1cc2c(s1)CN[C@@H]1CCc3cc(OC(C)=O)c(OC(C)=O)cc3[C@@H]21 [Adrogolide]
antiparkinson efficacy (PD patients): comparable to that of L-DOPA

Compound: CCCN1CCC[C@@H]2Cc3c(ccc4c3OCO4)C[C@H]21 [compound (Ib), (6aR,10aR)-7-propyl-6,6a,7,8,9,10,10a,11-octahydro-[1,3]dioxolo[4′,5′:5,6]benzo[1,2-g]quinoline]
efficacy in animal models relevant for Parkinson's Disease [1]: effective | conversion of compound (Ib) to compound (I) (human hepatocytes): demonstrated | conversion of compound (Ib) to compound (I) (rat hepatocytes): demonstrated

Compound: CCCN1CCC[C@@H]2CC3=C(CCCC3=O)C[C@H]21 [(Ia)]
efficacy in animal models relevant for Parkinson's Disease [1]: effective | conversion to the active compound (I) [4]: converted to the active compound (I)
